Legend:
Format in all cases: in vivo, human
pediatric UCD patients = assay: Pooled ammonia analyses from short term studies
Method: Pooled ammonia analyses from short term studies were also conducted.

UCD patients = assay: Example 3: rate of hyperammonemic crises (HACs)
From the text: Sixteen newborn infants aged 0 to 27 days, and 10 infants and toddlers aged 28 days to 23 months received RAVICTI Oral Liquid administered just prior to breastfeeding or intake of formula or food. The recommended dosing regimen was 3-6 times per day depending on feeding schedule.
The starting dose of RAVICTI was based on UCD status (newly diagnosed, or already stable on sodium phenylbutyrate [NaPBA] and/or sodium benzoate [NaBz]) and whether a hyperammonemic crisis was present. Subsequently, the dose may have been adjusted based on clinical and/or ammonia results, according to an algorithm provided in the protocol. […]
Hyperammonemic crisis (HAC) was defined as having signs and symptoms consistent with hyperammonemia (such as, but not limited to, frequent vomiting, nausea, headache, lethargy, irritability, combativeness, and/or somnolence) associated with high blood ammonia and requiring medical intervention. Rate of HACs prior to enrollment was calculated as sum of (number of HAC)/sum of (subject age in days at the time of enrollment or 365 days, whichever was less) across all subjects in the corresponding group. Rate of HACs per 6 months during the safety extension was calculated as sum of (number of HAC)/sum of (days during first 6 months starting on Day 8 or number days on RAVICTI, whichever is less) across all subjects in the corresponding group.

[1] = Example 3: urinary PAA concentrations (first full day and up to end of trial)
Method: Urinary PAA Concentrations on the First Full Day of RAVICTI Dosing
PK Evaluable Population: all subjects from the safety population with individual concentration-time profiles that allow computation of meaningful PK parameter values. Measurements were taken at hour 0, between 0.5 and 1.5 hours, between 1.5 and 2.5 hours, between 4 and 6 hours, between 7.5 and 8.5 hours, and between 12 and 24 hours after the first dose of the day on day 1 for stable subjects and on day 2 for subjects in HAC.
Urinary PAA Concentrations Up to End of Trial
PK Evaluable Population: all subjects from the safety population with individual concentration-time profiles that allow computation of meaningful PK parameter values. Measurements were taken at day 7, month 1, month 2, month 3, month 4, month 5, month 6, month 9, month 12, month 15, month 18, month 24, and at the end of the trial.

## O=C(CCCc1ccccc1)OCC(COC(=O)CCCc1ccccc1)OC(=O)CCCc1ccccc1 [RAVICTI, benzenebutanoic acid, 1′,1″-(1,2,3-propanetriyl) ester]
Pediatric UCD patients
  abnormal ammonia values: 15%
UCD patients; subjects aged 0 to 27 days, 16 subjects assessed
  Rate of HACs (ratio): 0.003
UCD patients; subjects aged 2 months and up to 2 years, 6 subjects assessed
  Rate of HACs (ratio): 0.005
[1]; Age 0 to <2 months, Day 7
  Urinary PAA concentration: 23.7 (±31.2); μg/mL
[1]; Age 0 to <2 months, End of trial
  Urinary PAA concentration: 11.6 (±9.0); μg/mL
[1]; Age 0 to <2 months, Month 1
  Urinary PAA concentration: 14.6 (±17.2); μg/mL
[1]; Age 0 to <2 months, Month 2
  Urinary PAA concentration: 12.3 (±13.3); μg/mL
[1]; Age 0 to <2 months, Month 3
  Urinary PAA concentration: 14.4 (±10.7); μg/mL
[1]; Age 0 to <2 months, Month 4
  Urinary PAA concentration: 6.4 (±7.1); μg/mL
[1]; Age 0 to <2 months, Month 5
  Urinary PAA concentration: 13.2 (±14.0); μg/mL
[1]; Age 0 to <2 months, Month 6
  Urinary PAA concentration: 5.5 (±00000); μg/mL
[1]; Age 0 to <2 months, Month 9
  Urinary PAA concentration: 11.8 (±8.5); μg/mL
[1]; Age 0 to <2 months, Month 12
  Urinary PAA concentration: 6.0 (±3.8); μg/mL
[1]; Age 0 to <2 months, Month 15
  Urinary PAA concentration: 4.9 (±0.3); μg/mL
[1]; Age 0 to <2 months, first full day, 0.5 to 1.5 hours
  Urinary PAA concentration: 46.2 (±58.6); μg/mL
[1]; Age 0 to <2 months, first full day, 1.5 to 2.5 hours
  Urinary PAA concentration: 62.5 (±42.8), μg/mL
[1]; Age 0 to <2 months, first full day, 4 to 6 hours
  Urinary PAA concentration: 34.6 (±56.2); μg/mL
[1]; Age 0 to <2 months, first full day, 7.5 to 8.5 hours
  Urinary PAA concentration: 22.8 (±25.3); μg/mL
[1]; Age 0 to <2 months, first full day, 12 to 24 hours
  Urinary PAA concentration: 35.2 (±51.0); μg/mL
[1]; Age 0 to <2 months, first full day, Hour 0
  Urinary PAA concentration: 11.1 (±10.4); μg/mL
[1]; Age 2 months to <2 years, Day 7
  Urinary PAA concentration: 5.82 (±2.21); μg/mL
[1]; Age 2 months to <2 years, End of trial
  Urinary PAA concentration: 7.0 (±5.16); μg/mL
[1]; Age 2 months to <2 years, Month 1
  Urinary PAA concentration: 4.44 (±4.61); μg/mL
[1]; Age 2 months to <2 years, Month 2
  Urinary PAA concentration: 3.69 (±1.82); μg/mL
[1]; Age 2 months to <2 years, Month 3
  Urinary PAA concentration: 4.65 (±0.49); μg/mL
[1]; Age 2 months to <2 years, Month 4
  Urinary PAA concentration: 7.14 (±00000); μg/mL
[1]; Age 2 months to <2 years, Month 5
  Urinary PAA concentration: 3.27 (±1.96); μg/mL
[1]; Age 2 months to <2 years, Month 6
  Urinary PAA concentration: 1.59 (±00000); μg/mL
[1]; Age 2 months to <2 years, Month 9
  Urinary PAA concentration: 4.10 (±1.65); μg/mL
[1]; Age 2 months to <2 years, Month 15
  Urinary PAA concentration: 2.04 (±00000); μg/mL
[1]; Age 2 months to <2 years, Month 18
  Urinary PAA concentration: 1.64 (±00000); μg/mL
[1]; Age 2 months to <2 years, first full day, 0.5 to 1.5 hours
  Urinary PAA concentration: 6.50 (±3.39); μg/mL
[1]; Age 2 months to <2 years, first full day, 1.5 to 2.5 hours
  Urinary PAA concentration: 7.29 (±4.10); μg/mL
[1]; Age 2 months to <2 years, first full day, 4 to 6 hours
  Urinary PAA concentration: 2.60 (±2.18); μg/mL
[1]; Age 2 months to <2 years, first full day, 7.5 to 8.5 hours
  Urinary PAA concentration: 4.48 (±4.38); μg/mL
[1]; Age 2 months to <2 years, first full day, 12 to 24 hours
  Urinary PAA concentration: 4.31 (±2.33); μg/mL
[1]; Age 2 months to <2 years, first full day, Hour 0
  Urinary PAA concentration: 18.78 (±27.33); μg/mL
